Substitutions are numbered along the chain they refer to. Where “and” joins values, the source holds several entries; their conditions need not be identical. Equal entries are not always repeated.
What was measured:
HCMV UL50-UL53 = target: T1, HCMV UL50-UL53 (Human cytomegalovirus, UniProt P16794); test: biochemical; assay type: binding; details: for scoring as a hit in the HTRF screen: hit = at least 50 percent inhibition of HTRF signal, ibrutinib up to 50 μM
T1 construct: GST (N, cleaved yes); 13-residue glycine-serine linker […]; made in house; host or cells: E. coli BL21 (DE3) RIPL

HSV-1 P30-UL42 [1] = target: T2, HSV-1 P30-UL42 (Human herpesvirus 1, UniProt P10226); test: biochemical; assay type: binding
T2 construct: containing UL42 residues 1–340; GST (N); glycine-serine linker of the modified pGEX6p plasmid (presence inferred) (N); made in house; host or cells: E. coli (UL42: pLysS BL21)

HSV-1 P30-UL42 [2] = target: T3, HSV-1 P30-UL42 (Human herpesvirus 1, UniProt P10226); test: biochemical; assay type: binding; remark: listed apart in the source
T3 construct: containing UL42 residues 1–340; GST (N); glycine-serine linker of the modified pGEX6p plasmid (presence inferred) (N); made in house; host or cells: E. coli (UL42: pLysS BL21)
T3 sequence (P10226 whole entry, looked up): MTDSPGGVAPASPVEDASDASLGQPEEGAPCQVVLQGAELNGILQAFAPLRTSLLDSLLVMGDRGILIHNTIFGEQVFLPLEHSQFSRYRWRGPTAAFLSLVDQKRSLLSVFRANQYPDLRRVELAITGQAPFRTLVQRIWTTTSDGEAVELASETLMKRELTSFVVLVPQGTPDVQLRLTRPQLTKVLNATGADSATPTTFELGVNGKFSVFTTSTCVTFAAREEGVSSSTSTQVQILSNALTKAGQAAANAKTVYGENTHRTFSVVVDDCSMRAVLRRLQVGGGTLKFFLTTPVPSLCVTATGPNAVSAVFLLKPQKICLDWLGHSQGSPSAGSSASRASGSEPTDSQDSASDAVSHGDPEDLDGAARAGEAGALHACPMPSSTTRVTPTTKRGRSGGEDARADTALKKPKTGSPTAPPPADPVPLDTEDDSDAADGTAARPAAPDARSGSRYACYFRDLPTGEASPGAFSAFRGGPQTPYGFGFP

[3] = target: T4, Myc-tagged HCMV UL53 (residues 50-292) (human cytomegalovirus (HCMV), UniProt P16794 50-292); test: AlphaScreen or HTRF; details: both partners purified
T4 construct: source: E. coli BL21 (DE3) RIPL, purified (glutathione-agarose, on-column PreScission digestion, size exclusion chromatography); not shown: GST, N-terminal, cleaved; Myc, N-terminal, kept
T4 sequence: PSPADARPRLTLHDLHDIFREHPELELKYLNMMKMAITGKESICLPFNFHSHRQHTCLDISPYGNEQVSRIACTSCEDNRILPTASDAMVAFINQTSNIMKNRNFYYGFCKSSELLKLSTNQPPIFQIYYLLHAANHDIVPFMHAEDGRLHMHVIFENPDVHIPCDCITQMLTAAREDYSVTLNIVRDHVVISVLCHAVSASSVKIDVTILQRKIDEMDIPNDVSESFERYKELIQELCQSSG

[4] = target: T5, His-tagged HCMV UL50 (residues 1-169) (human cytomegalovirus (HCMV), UniProt P16791 1-169); test: AlphaScreen or HTRF; details: both partners purified
T5 construct: also called His-UL50; tagged UL50; source: E. coli BL21 (DE3) RIPL, purified (nickel Sepharose, size exclusion chromatography); not shown: His, N-terminal, kept
T5 sequence: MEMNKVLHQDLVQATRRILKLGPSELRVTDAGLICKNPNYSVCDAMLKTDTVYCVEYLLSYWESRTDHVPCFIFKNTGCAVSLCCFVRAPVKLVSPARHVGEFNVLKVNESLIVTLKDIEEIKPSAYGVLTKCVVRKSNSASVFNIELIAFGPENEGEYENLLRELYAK

[5] = target: T6, His-SUMO-tagged HSV-1 UL42 (residues 1-340) (herpes simplex virus 1 (HSV-1), UniProt P10226 1-340); test: AlphaScreen or HTRF; details: both partners purified
T6 construct: also called His-SUMO-UL42; His-tagged HSV-1 UL42; source: E. coli pLysS BL21, purified as described for the HCMV NEC proteins
T6 sequence: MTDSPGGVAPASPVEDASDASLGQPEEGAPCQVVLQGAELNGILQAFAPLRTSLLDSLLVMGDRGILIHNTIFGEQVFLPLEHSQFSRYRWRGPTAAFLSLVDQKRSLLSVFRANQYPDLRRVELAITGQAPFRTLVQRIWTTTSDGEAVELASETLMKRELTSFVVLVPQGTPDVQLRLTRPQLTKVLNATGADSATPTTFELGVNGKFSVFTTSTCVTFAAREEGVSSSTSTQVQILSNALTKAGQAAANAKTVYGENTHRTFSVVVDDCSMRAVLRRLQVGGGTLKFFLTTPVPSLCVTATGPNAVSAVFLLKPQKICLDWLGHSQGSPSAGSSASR

[6] = LINCS2 well 2, 10 μM in the assay
[7] = LINCS2 well 4, 0.4 μM in the assay
[8] = Selleck well, 50 μM in the assay

O=C([O-])c1ccccc1-c1c2cc(Br)c(=O)cc-2oc2[c]([Hg+])c([O-])c(Br)cc12.[Na+].[Na+].[OH-] [merbromin, reference compound]
scoring as a hit in the HTRF screen (HCMV UL50-UL53): scored negative

CCC(=O)Nc1cccc(Oc2ccnc3[nH]ccc23)c1 [aGK2]
activity in the HTRF assay for NEC interactions (HCMV UL50-UL53): little, if any activity
remaining activity at 1.56 µM (HCMV UL50-UL53; WT UL50-UL53, 1.56 μM compound, replicates, read-out: normalized FRET signal relative to control without inhibitor): 95%
remaining activity at 3.13 µM (HCMV UL50-UL53; WT UL50-UL53, 3.13 μM compound, replicates, read-out: normalized FRET signal relative to control without inhibitor): 95%
remaining activity at 6.25 µM (HCMV UL50-UL53; WT UL50-UL53, 6.25 μM compound, replicates, read-out: normalized FRET signal relative to control without inhibitor): 92%
remaining activity at 50 µM (HCMV UL50-UL53; WT UL50-UL53, 50.00 μM compound, replicates, read-out: normalized FRET signal relative to control without inhibitor): 93%
remaining activity at 25 µM (HCMV UL50-UL53; WT UL50-UL53, […] compound, replicates, read-out: normalized FRET signal relative to control without inhibitor): 94%
remaining activity at 1.56 µM (HSV-1 P30-UL42 [1]; HSV1 P30-UL42, 1.56 μM compound, replicates, read-out: normalized FRET signal relative to control without inhibitor): 101%
remaining activity at 3.13 µM (HSV-1 P30-UL42 [1]; HSV1 P30-UL42, 3.13 μM compound, replicates, read-out: normalized FRET signal relative to control without inhibitor): 102%
remaining activity at 6.25 µM (HSV-1 P30-UL42 [1]; HSV1 P30-UL42, 6.25 μM compound, replicates, read-out: normalized FRET signal relative to control without inhibitor): 99%
remaining activity at 50 µM (HSV-1 P30-UL42 [1]; HSV1 P30-UL42, 50.00 μM compound, replicates, read-out: normalized FRET signal relative to control without inhibitor): 97%
remaining activity at 25 µM (HSV-1 P30-UL42 [1]; HSV1 P30-UL42, […] compound, replicates, read-out: normalized FRET signal relative to control without inhibitor): 99%
inhibition in the HSV-1 P30-UL42 counterscreen assay (HSV-1 P30-UL42 [1]; all concentrations tested (up to 50 μM)): little, if any activity

C=CC(=O)N1CCC[C@@H](n2nc(-c3ccc(Oc4ccccc4)cc3)c3c(N)ncnc32)C1 [ibrutinib, reference compound]
HTRF Channel 2 (620 nm) (HCMV UL50-UL53; LINCS2 well 1, 50 μM in the assay): 5736 and 5840
HTRF Channel 1 (665 nm) (HCMV UL50-UL53; [6]): 31679
HTRF Channel 2 (620 nm) (HCMV UL50-UL53; [6]): 5859 and 6111
HTRF Channel 2 (620 nm) (HCMV UL50-UL53; LINCS2 well 3, 2 μM in the assay): 6125 and 5780
HTRF Channel 1 (665 nm) (HCMV UL50-UL53; [7]): 31815
HTRF Channel 2 (620 nm) (HCMV UL50-UL53; [7]): 5791 and 5828
inhibition in HTRF screen (HCMV UL50-UL53; LINCS wells, 50, 10, 2 and 0.4 μM): Essentially no inhibition
HTRF Channel 1 (665 nm) (HCMV UL50-UL53; [8]): 7468 and 7529
HTRF Channel 2 (620 nm) (HCMV UL50-UL53; [8]): 8631 and 9073
scoring as a hit in the HTRF screen (HCMV UL50-UL53): not registering as a hit

Untagged P30: untagged C-terminal 36 residues of HSV-1 UL30 (DDVAARLRAAGFGAVGAGATAEETRRMLHRAFDTLA) [reference compound]
HTRF ratio (HSV-1 P30-UL42 [2]; P30-UL42 + untagged protein, A665nm/A620nm * 10000, single replicates): 26529 and 26670 and 27659
HTRF ratio, Mean (HSV-1 P30-UL42 [2]; P30-UL42 + untagged protein, triplicate): 26953
S/B (HSV-1 P30-UL42 [2]; P30-UL42 with untagged protein): 2.4

B1: His-tagged HCMV UL50 (residues 1-169) (domain or fragment)
chain: T5 sequence
notes: also called His-UL50; source: E. coli BL21 (DE3) RIPL, purified (nickel Sepharose, size exclusion chromatography); not shown: His, N-terminal, kept
Kd [3]: 220 nM and 380 nM

B2: His-tagged HCMV UL50 (residues 1-169) C35N (domain or fragment)
chain: T5 sequence with C35N
notes: source: E. coli BL21 (DE3) RIPL, purified (same methods as His-UL50); not shown: His, N-terminal, kept
Kd [3]: 110 nM and 190 nM

B3: His-tagged HCMV UL50 (residues 1-169) C79S (domain or fragment)
chain: T5 sequence with C79S
notes: as for B2
Kd [3]: 230 nM and 450 nM

B4: His-tagged HCMV UL50 (residues 1-169) C54S (domain or fragment)
chain: T5 sequence with C54S
notes: as for B2
Kd [3]: 140 nM and 340 nM

B5: Myc-tagged HCMV UL53 (residues 50-292) with glycine-serine linker (domain or fragment)
chain: GGGGSGGGGSGGGPSPADARPRLTLHDLHDIFREHPELELKYLNMMKMAITGKESICLPFNFHSHRQHTCLDISPYGNEQVSRIACTSCEDNRILPTASDAMVAFINQTSNIMKNRNFYYGFCKSSELLKLSTNQPPIFQIYYLLHAANHDIVPFMHAEDGRLHMHVIFENPDVHIPCDCITQMLTAAREDYSVTLNIVRDHVVISVLCHAVSASSVKIDVTILQRKIDEMDIPNDVSESFERYKELIQELCQSSG
notes: source: E. coli BL21 (DE3) RIPL, purified (glutathione-agarose, on-column PreScission digestion, size exclusion chromatography); not shown: GST, N-terminal, cleaved; Myc, N-terminal, kept
HTRF ratio, fold over the background of either tagged subunit alone [4]: ~3 fold

B6: Myc-tagged HSV-1 Pol C-terminal peptide P30 (UL30 residues 1200-1235) (peptide)
chain: GGGGSGGGGSGGGDDVAARLRTAGFGAVGAGATAEETRRMLHRAFDTLA
notes: source: E. coli, expressed and purified as described for Myc-UL53; not shown: Myc, N-terminal, kept
binding result [5]: binds
